Results reported in US11440935B2, “3″,5″-dimethoxybenzoyl-3′-amino-3′-deoxy adenosine-5′-triphosphates and pharmaceutical uses thereof” (Danmir Therapeutics, LLC, priority 2018, dated 2022).

What was measured:
[1] = system: nodose ganglion vagal sensory nerve terminals; assay: ATP-induced neural action potentials in guinea-pig lung-vagus preparation ex vivo; conditions: ATP 10 μM; DT-0111 1 mM; innervated guinea-pig lung ex vivo
Method: The innervated guinea-pig lung preparation was prepared as was described in Undem B J, Chuaychoo B, Lee M G, Weinreich D, Myers A C, Kollarik M. Subtypes of vagal afferent C-fibres in guinea-pig lungs. J Physiol 2004; 556: 905-917; Weigand L A, Ford A P, Undem B J. A role for ATP in bronchoconstriction-induced activation of guinea pig vagal intrapulmonary C-fibres. J Physiol 2012; 590: 4109-4120. The contents of Undem et al. and Weigand et al. are incorporated herein for the purpose of the preparation of the innervated guinea-pig lung preparation. The response to ATP (10 μM; 1 ml, slowly infused into trachea and pulmonary artery) was assessed as the number of action potentials it elicited. Two control responses 15 minutes apart were recorded. There was not differences in the number of action potentials evoked between the first and second response (p>0.1). Subsequently, the lung superfused and perfused via both trachea and pulmonary artery for 15 min with increasing concentration of DT-0111 and the ATP challenge was repeated. The data were quantified as the total number of action potentials evoked and the peak frequency (Hz) as measured by the most action potentials evoked in any 1 s bin. DT-0111 was prepared in distilled water as a 10 mM solution, and aliquots were stored frozen at −20° C. (1-5 days). […]

anesthetized guinea-pigs = assay: ATP-induced bronchoconstriction in anesthetized guinea-pig (tracheal pressure); assay type: in vivo; conditions: pretreatment with aerosolized DT-0111, anesthetized guinea-pigs
Method: Male Dunkin-Hartley guinea pigs (GPs) (220-250 g, Charles River) were quarantined for 14 days. The housing room was constantly ventilated, and the temperature kept at 23° C. Mean body weight of the GPs on day of experiment was 336.0±9.9 g. Anesthesia were induced by using a mixture of ketamine+xylazine (40-80 mg/kg+5-10 mg/kg; IM) as previously published (Zhuang, et al., “High-Frequency Electrical Stimulatino of Cervical Vagi Reduces Airway Response to Methacholine,” World J. of Respirology 2013 Jul. 28; 3(2): 11-19). Supplementary anesthetic doses (¼-½ of the original dose) were administered as needed if ear pinch changed respiratory rate and/or upon the manifestation of an accelerated heart rate. Body temperature was monitored continuously with a rectal thermometer and maintained at approximately 36.5° C. using a heating pad and lamp. […]
The side branch of the tracheal cannulation was connected a pressure transducer. The pressure signal was pre-amplified by a bridge amplifier (AD Instruments Inc., CO) and then digitized and recorded. […] The pressure signal and animal rectal temperature were monitored and digitally recorded continuously in computer files throughout the experiment using the PowerLab/8 sp data acquisition system (AD Instruments) with DELL XPS 8700 computer equipped with Microsoft Windows 7 and LabChart Pro 7 software. […]

Substance: Sodium 3′-N-(3,5-dimethoxybenzoyl)-3′-deoxy-β-D-adenosine 5′-triphosphate [DT-0111]
- effect on ATP-induced action potentials [1]: markedly suppresses the effect of ATP
- tracheal pressure (Ptr) after ATP doses (anesthetized guinea-pigs): significantly suppressed
